Test results published in US20170000775A1, “PHARMACEUTICAL COMPOSITIONS COMPRISING ANTIBACTERIAL AGENTS” (priority 2014, published 2017).
Structures can show the parent of a compound that is named as a salt.

How the values were obtained:
[1] = tested on: A. baumannii NCTC 13303 producing CHDL oxacillinase [OXA-26] beta-lactamase enzymes; test: Time kill study against A. baumannii NCTC 13303; type: cell-based, Acinetobacter baumannii; settings: sulbactam 8 mcg/ml, sodium salt of Formula (I) 4 mcg/ml, imipenem 8 mcg/ml; for Bacterial count, 0 hour: 0 hour (initial inoculum); for Bacterial count, 0 hour / Bacterial count, 2 hour / Bacterial count, 4 hour / Bacterial count, 6 hour / Bacterial count, 8 hour: alone or combined as labelled; for Effect on bacterial count (in words): throughout the duration of the study
Protocol: (§1) In a typical time kill study, the freshly grown cultures were diluted to the required cell density (initial starting inoculum) in Cation adjusted Muller Hinton broth medium (BD, USA). The antibacterial agents (either alone or in combination) at the required concentrations were added into the culture-containing medium. The samples were incubated under shaking condition (120 rpm) at 37° C. Enumeration of viable bacterial count was done every 2 hour by diluting in normal saline and plating on to the Tryptic Soya Agar plates (BD, USA). The plates were incubated for 24 hours to arrive at the viable bacterial count. […] In general, the decrease of 1 Log CFU/ml, corresponds to 90% killing of bacteria. Similarly, 2 Log CFU/ml reductions indicates to 99% killing of bacteria and 3 Log CFU/ml reductions is equal to 99.9% killing of bacteria.
(§2) The assay without any antibacterial agent was taken as control. The sodium salt of a compound of Formula (I), was used for antibacterial testing.

[2] = tested on: A. baumannii NCTC 13302 producing CHDL oxacillinase [OXA-25] beta-lactamase enzymes; test: Time kill study against A. baumannii NCTC 13302; type: cell-based, Acinetobacter baumannii; settings: sulbactam 8 mcg/ml, sodium salt of Formula (I) 4 mcg/ml, imipenem 16 mcg/ml; for Bacterial count, 0 hour: 0 hour (initial inoculum); for Bacterial count, 0 hour / Bacterial count, 2 hour / Bacterial count, 4 hour / Bacterial count, 6 hour / Bacterial count, 8 hour: alone or combined as labelled; for Effect on bacterial count (in words): throughout the duration of the study
Protocol: as §1, §2

| SMILES | Bacterial count, 0 hour [1] [Log10CFU/ml] | Bacterial count, 2 hour [1] [Log10CFU/ml] | Bacterial count, 4 hour [1] [Log10CFU/ml] | Bacterial count, 6 hour [1] [Log10CFU/ml] | Bacterial count, 8 hour [1] [Log10CFU/ml] | Effect on bacterial count (in words) [1] | Bacterial count, 0 hour [2] [Log CFU/ml] | Bacterial count, 2 hour [2] [Log CFU/ml] | Bacterial count, 4 hour [2] [Log CFU/ml] | Bacterial count, 6 hour [2] [Log CFU/ml] | Bacterial count, 8 hour [2] [Log CFU/ml] | Effect on bacterial count (in words) [2] |
| --- | --- | --- | --- | --- | --- | --- | --- | --- | --- | --- | --- | --- |
| N#C[C@@H]1CC[C@@H]2CN1C(=O)N2OS(=O)(=O)O [Sodium salt of a compound of Formula (I), sulphuric acid, mono[(1R,2S,5R)-2-cyano-7-oxo-1,6-diazabicyclo[3.2.1]oct-6-yl] ester, sodium salt (1:1)] | 6.17 | 7.6 | 7.9 | 7.95 | 8.1 | not effective to decrease the bacterial count | 6.36 | 7.8 | 8.0 | 8.1 | 8.15 | not effective to decrease the bacterial count |
| CC1(C)[C@H](C(=O)O)N2C(=O)C[C@H]2S1(=O)=O [Sulbactam, sulbactam] | 6.17 | 7.32 | 7.56 | 7.81 | 7.81 | not effective to decrease the bacterial count | 6.36 | 6.81 | 7.4 | 7.65 | 7.31 | not effective to decrease the bacterial count |
| C[C@@H](O)[C@H]1C(=O)N2C(C(=O)O)=C(SCCN=CN)C[C@H]12 [Imipenem, imipenem] | 6.17 | 7.84 | 8.13 | 8.26 | 8.23 |  | 6.36 | 7.74 | 8 | 8.32 | 8.74 |  |
